The text below walks through data of patent US20050245461A1, “Methods for treating alcoholism” (priority 2004, published 2005).

Entries after “also recorded” stand apart in the source; their conditions may differ. Like-named read-outs stand apart in the source and are kept apart here.

The subject of one series is alcohol withdrawal. As to conditions: literature (Myrick 1998; Karam-Hage 2000; Minuk 1995); cited from earlier work.
Series [1] relates to ethanol drinking (lever presses for ethanol cocktail). Nature of the series: rat model of alcohol self-administration (operant lever pressing for 10% ethanol cocktail). As to conditions: for effect on naltrexone's ability to decrease drinking when coadministered: coadministered with naltrexone, conclusion of Example 1; for ED50: Rattus norvegicus; for Lever Presses (Mean ± SEM): 30 min session.
Method: Male Wistar rats (starting weight of 200±30 grams; Charles River Laboratories, MA) were individually housed with free access to food and water. […] These conditions were recorded once daily throughout the study.
Animals were trained daily in an operant chamber to press a lever to receive access to an ethanol cocktail as a reinforcer using a saccharin fading procedure. […] The final ethanol cocktail contained 10% ethanol in 0.04% saccharine. Each session lasted 30 minutes, during which the rat could press the lever twice to gain access to 0.1 mL of the ethanol cocktail. The operant chamber (Coulbourn Instruments, Allentown, Pa.) is a computer-controlled automated system which recorded the number of lever presses completed by a rat. At the end of the training period (6-8 weeks), rats which consistently drank a sufficient quantity of ethanol to produce a pharmacological effect (minimum intake of 0.6 g/kg/hour) were selected to participate in the drug studies. These trained rats were used repeatedly throughout these studies to control for intra-subject variability. All drugs were administered acutely with a minimum of a 2 day drug washout period.
Naltrexone was prepared daily in 0.9% saline and administered subcutaneously (SC). The anticonvulsants (gabapentin, carbamazepine, levetiracetam and lamotrigine) were suspended in 3% carboxymethyl cellulose; a total volume of 1 mL/kg of this suspension was delivered orally (PO) to the rat using a gavage tube.
The ability of naltrexone to reduce ethanol drinking (i.e., decrease the number of lever presses) was assessed in this animal model of self administration of ethanol. […] The total number of lever presses was recorded over the 30 minute test session. […] An anticonvulsant (gabapentin, carbamazepine, levetiracetam or lamotrigine) was coadministered with naltrexone to determine if it affected naltrexone's ability to decrease ethanol drinking. […] This dose allows one to determine if the co-administered drugs impaired or enhanced naltrexone's effect on ethanol drinking. The anticonvulsants were administered orally 30 minutes prior to a naltrexone injection (SC) (i.e., 60 minutes prior to the beginning of the ethanol drinking test session). The number of lever presses for the ethanol cocktail was recorded at the end of the 30 minute session.

Series [2] concerns audiogenic-induced convulsions. Nature of the series: audiogenic-induced convulsions in mouse model of alcohol withdrawal.
Method: These conditions were recorded once daily throughout the study.
Alcohol is provided in a nutritionally balanced liquid diet.
Series [3] can be described thus: pharmacokinetic study: naltrexone in plasma alone or coadministered with gabapentin. In kind it is in vivo, rat. As to conditions: vehicle+naltrexone vs gabapentin+naltrexone (gabapentin 1 mg/kg, naltrexone 0.5 mg/kg), rats. The procedure: FIG. 3C is a line graph showing the amount of naltrexone in the plasma over a period of time for naltrexone administered alone or naltrexone coadministered with gabapentin.
To determine if this drug interaction might be effective in decreasing ethanol drinking with lower doses of naltrexone, the dose of gabapentin (1 mg/kg) was kept constant and the dose of naltrexone varied from 0.05 to 3.0 mg/kg (FIG. 3B). […] To determine if gabapentin may be altering the plasma profile of naltrexone at this dose combination, a pharmacokinetic study was run in a separate cohort group of rats.

[4] abbreviates: anticonvulsant 0.1 mg/kg PO + naltrexone 0.1 mg/kg SC.
Setting [5] is: anticonvulsant 1.0 mg/kg PO + naltrexone 0.1 mg/kg SC.
[6] abbreviates: anticonvulsant 10.0 mg/kg PO + naltrexone 0.1 mg/kg SC.

For “1-(aminomethyl)cyclohexane acetic acid [Gabapentin]”, in the series with alcohol withdrawal, the “safety and efficacy as alternatives to benzodiazepines for the treatment of alcohol withdrawal” value was “safe and efficacious”. The “effect on naltrexone's ability to decrease drinking when coadministered” value in series [1] is recorded as “did not impair or block”. Further, in series [1] (coadministration of gabapentin, narrow therapeutic window), the “enhancement of naltrexone's effect on alcohol drinking” value is given as “enhanced naltrexone's effects of alcohol drinking”. Further, the “ethanol drinking, combination compared to naltrexone alone” value in series [1] (gabapentin 1 mg/kg PO plus naltrexone 0.5 mg/kg SC, p<0.006) is “further significant decrease”. The “difference in number of lever presses, naltrexone alone vs combined with gabapentin” value in series [1] (gabapentin 1 mg/kg constant, naltrexone 0.05 to 3.0 mg/kg, except at 0.5 mg/kg naltrexone) is recorded as “No differences”. Besides, the “potentiation of naltrexone's decrease in ethanol drinking” value in series [1] (gabapentin 0.1 and 10.0 mg/kg coadministered with naltrexone 0.5 mg/kg) was “not seen”. For the same compound, in series [1] (gabapentin alone, 1 or 10 mg/kg), the “effect on lever pressing for ethanol compared to non-drug treated conditions” value is reported as “neither gabapentin at 1 or 10 mg/kg alone had any effect”.
For the compound `CC[C@@H](C(N)=O)N1CCCC1=O` (single isomer, unassigned) [Levetiracetam], the “Number of Lever Presses (mean ± sem)” value in series [1] (anticonvulsant 1.0 mg/kg PO + naltrexone 0.5 mg/kg SC) is on record as 34 ± 11; in series [1] (anticonvulsant 10.0 mg/kg PO + naltrexone 0.5 mg/kg SC), 36 ± 8; in series [1] (anticonvulsant 100.0 mg/kg PO + naltrexone 0.5 mg/kg SC) it was 34 ± 9. Also, in series [1], the “effect on naltrexone's ability to decrease drinking when coadministered” value is given as “did not impair or block”. Further, the “difference between naltrexone (with vehicle) and combination with naltrexone, lever presses” value in series [1] (levetiracetam 1-100 mg/kg PO + naltrexone 0.5 mg/kg SC) is reported as “no significant differences”.
Take `NC(=O)N1c2ccccc2C=Cc2ccccc21` [Carbamazepine, 5H-dibenz [b,f] azepine-5-carboxamide]: the results for the “Number of Lever Presses (mean ± sem)” value in series [1] (setting [4]), in series [1] (setting [5]) and in series [1] (setting [6]) were 68 ± 10, 49 ± 8 and 48 ± 9, respectively. Also, the “effect of combination with naltrexone on ethanol drinking” value in series [1] (carbamazepine 0.1-10.0 mg/kg PO + naltrexone 0.1 mg/kg) is recorded as “did not significantly affect”. Besides, the “effect on naltrexone's ability to decrease drinking when coadministered” value in series [1] is “did not impair or block”. Further, the “Withdrawal Rating (mean ± sem), behavioral response scale of 1-4” value in series [2] (carbamazepine 10 mg/kg PO + saline) is recorded as 1.1 ± 0.1. Besides, in series [2] (carbamazepine 10 mg/kg with/without naltrexone 3 mg/kg, p=0.18), the “difference between drug groups on the audiogenic convulsion test” value was “no statistical differences”.
As to `Nc1nnc(-c2cccc(Cl)c2Cl)c(N)n1` [Lamotrigine, 6-(2,3-dichlorophenyl)-1,2,4-trizine-3,5-diamine], the “Number of Lever Presses (mean ± sem)” value is 61 ± 13 in series [1] (setting [4]), 60 ± 13 in series [1] (setting [5]) and 567 ± 10 in series [1] (setting [6]). The “effect on naltrexone's ability to decrease drinking when coadministered” value in series [1] was “did not impair or block”. Also, in series [1] (lamotrigine 0.1-10 mg/kg PO + naltrexone 0.1 mg/kg SC), the “effect of combination with naltrexone on number of lever presses for ethanol” value is on record as “did not significantly affect”.
In general, ED50 refers to the midpoint of the dose-response relation. As for `O=C1CC[C@@]2(O)[C@H]3Cc4ccc(O)c5c4[C@@]2(CCN3CC2CC2)[C@H]1O5` [Naltrexone], the ED50 in series [1] (read-out: ED50 re-established) was 0.1 mg/kg; in series [1] (sc, read-out: ED50 (dose reducing lever responding for ethanol by approximately 50% compared to baseline)), 0.5 mg/kg; in series [1] (sc, read-out: ED50 for decrease in number of lever presses), 0.1 to 0.5 mg/kg. The “decrease in lever presses vs baseline and vehicle control” value in series [1] (lowest dose of naltrexone tested, 0.05 mg/kg) is “no significant decrease”. The “dose dependence of decrease in number of lever presses” value in series [1] (naltrexone 0-6 mg/kg SC) is “dose-dependent decrease”. The “Approximate Absolute Ethanol Consumed” value is around 1.0 g/kg in series [1] (naltrexone 0.05 mg/kg SC); around 0.7 g/kg in series [1] (naltrexone 0.1 mg/kg SC); around 0.6 g/kg in series [1] (naltrexone 0.5 mg/kg SC); around 0.3 g/kg in series [1] (naltrexone 1.0 mg/kg SC); around 0.2 g/kg in series [1] (naltrexone 3.0 mg/kg SC); around 0.2 g/kg in series [1] (naltrexone 6.0 mg/kg SC). Moreover, the “Lever Presses (Mean ± SEM)” value was found to be 132 ± 13.3 in series [1] (naltrexone 0.05 mg/kg SC); 88 ± 8.6 in series [1] (naltrexone 0.1 mg/kg SC); 83 ± 12.1 in series [1] (naltrexone 0.5 mg/kg SC); 43 ± 8.6 in series [1] (naltrexone 1.0 mg/kg SC); 24 ± 8.1 in series [1] (naltrexone 3.0 mg/kg SC); 21 ± 5.5 in series [1] (naltrexone 6.0 mg/kg SC). The “decrease in number of lever presses from the baseline” value in series [1] (naltrexone 0.1 mg/kg, carbamazepine study) is 42.4%. Moreover, the “decrease in lever responding for ethanol compared to non-drug baseline” value is listed as 65% in series [1] (naltrexone 0.5 mg/kg SC, levetiracetam study) and 49% in series [1] (naltrexone alone (0.1 mg/kg SC), lamotrigine study). In series [1] (naltrexone 0.5 mg/kg SC, 0.1% saccharine solution substituted for ethanol cocktail), the “specificity of decrease in drinking for ethanol versus saccharine” value is reported as “specific for ethanol; also recorded: selective for decreasing ethanol drinking”. Also, in series [1] (naltrexone 3 and 6 mg/kg), the “effect on decreasing ethanol drinking at higher doses” value was “appeared to plateau”. The “decrease in number of lever presses for ethanol compared to non-drug baseline” value in series [1] (naltrexone ED50 dose (0.5 mg/kg), gabapentin study) stood at 54%. Moreover, in series [1] (naltrexone alone 0.5 mg/kg, additional testing, most of the animals), the “reduction in lever pressing for ethanol” value was “greater than 50%”. In addition, the “Number of Lever Presses (mean ± sem)” value is given as 67 ± 17 in series [1] (vehicle (drug dose 0.0) PO + naltrexone 0.1 mg/kg SC, carbamazepine study); 74 ± 18 in series [1] (vehicle (drug dose 0.0) PO + naltrexone 0.1 mg/kg SC, lamotrigine study); 50 ± 10 in series [1] (vehicle (drug dose 0.0) PO + naltrexone 0.5 mg/kg SC, levetiracetam study). In series [2] (naltrexone 3 mg/kg with carbamazepine 10 mg/kg, mice with alcohol withdrawal symptoms), the “exacerbation of audiogenic-induced convulsions” value is given as “did not exacerbate”. Also, the “interaction with carbamazepine's anticonvulsant activity” value in series [2] (naltrexone 3 mg/kg, carbamazepine 10 mg/kg) is on record as “did not appear to interact”. In addition, the “plasma profile of naltrexone, difference between treatment groups” value in series [3] is on record as “no statistical difference”.
As for `CCCC(CCC)C(=O)O` [valproic acid, 2-propylpentanoic acid], in the series on alcohol withdrawal, the “safety and efficacy as alternatives to benzodiazepines for the treatment of alcohol withdrawal” value is “safe and efficacious”.
